Laboratory results taken from patent publication US12251387B2, “Substituted quinoxalines and benzo[c][1,2,5]oxadiazoles as DNA-PK inhibitors” (Vertex Pharmaceuticals Incorporated, priority 2013, dated 2025).

What follows are compounds tested against DNA-PK (Homo sapiens, UniProt P78527) (assay: DNA-PK Inhibition Assay (standard radiometric kinase assay, 33P-ATP, peptide substrate)). Settings: radiometric assay, approximately 6 nM DNA-PK, 100 μM ATP, 45 min; fit to competitive tight-binding inhibition; read-out: Ki for the inhibition of DNA-PK.
Format: biochemical
Method: Compounds were screened for their ability to inhibit DNA-PK kinase using a standard radiometric assay. Briefly, in this kinase assay the transfer of the terminal ^33P-phosphate in ^33P-ATP to a peptide substrate is interrogated. The assay was carried out in 384-well plates to a final volume of 50 μL per well containing approximately 6 nM DNA-PK, 50 mM HEPES (pH 7.5), 10 mM MgCl2, 25 mM NaCl, 0.01% BSA, 1 mM DTT, 10 μg/mL sheared double-stranded DNA (obtained from Sigma), 0.8 mg/mL DNA-PK peptide (Glu-Pro-Pro-Leu-Ser-Gln-Glu-Ala-Phe-Ala-Asp-Leu-Trp-Lys-Lys-Lys, obtained from American Peptide), and 100 μM ATP. Accordingly, compounds of the invention were dissolved in DMSO to make 10 mM initial stock solutions. Serial dilutions in DMSO were then made to obtain the final solutions for the assay. A 0.75 μL aliquot of DMSO or inhibitor in DMSO was added to each well, followed by the addition of ATP substrate solution containing ^33P-ATP (obtained from Perkin Elmer). The reaction was started by the addition of DNA-PK, peptide and ds-DNA. After 45 min, the reaction was quenched with 25 μL of 5% phosphoric acid. The reaction mixture was transferred to MultiScreen HTS 384-well PH plates (obtained from Millipore), allowed to bind for one hour, and washed three times with 1% phosphoric acid. Following the addition of 50 μL of Ultima Gold™ high efficiency scintillant (obtained from Perkin Elmer), the samples were counted in a Packard TopCount NXT Microplate Scintillation and Luminescence Counter (Packard BioScience). The Ki values were calculated using Microsoft Excel Solver macros to fit the data to the kinetic model for competitive tight-binding inhibition.
For c1cc(N[C@H]2CC[C@@H](Oc3cc(N4CCOCC4)cc4nccnc34)CC2)nc(OCCN2CCCCC2)n1 [Compound 493], the Ki was < 100 nM. With O=C1NCCc2nc(N[C@H]3CC[C@@H](Oc4cc(N5CCOCC5)cc5nccnc45)CC3)sc21 [Compound 322] the Ki was < 100 nM. In the case of Cn1nc(N[C@H]2CC[C@@H](Oc3cc(N4CCOCC4)cc4nccnc34)CC2)c2cccnc21 [Compound 329], the Ki is reported as < 100 nM. With COc1ccc(N[C@H]2CC[C@@H](Oc3cc(N4CCOCC4)cc4nccnc34)CC2)cn1 [Compound 447] the Ki was < 100 nM. For COc1ncc(N[C@H]2CC[C@@H](Oc3cc(N4CCOCC4)cc4nccnc34)CC2)cn1 [Compound 574], the Ki was < 100 nM. In the case of CN(C)CCOc1ccnc(N[C@H]2CC[C@@H](Oc3cc(N4CCOCC4)cc4nccnc34)CC2)n1 [Compound 559], the Ki is reported as < 100 nM. With CC(C)(C)OC(=O)c1cc(N[C@H]2CC[C@@H](Oc3cc(N4CCOCC4)cc4nccnc34)CC2)ccc1F [Compound 421] the Ki was < 100 nM. For c1cnc2c(O[C@H]3CC[C@@H](Nc4ncc(OCCCN5CCCCC5)cn4)CC3)cc(N3CCOCC3)cc2n1 [Compound 507], the Ki was < 100 nM. For Cc1nc(N[C@H]2CC[C@@H](Oc3cc(N4CCOCC4)cc4nccnc34)CC2)c2occc2n1 [Compound 435], the Ki was < 100 nM. For CN1CCC[C@H]1CNc1ncnc(N[C@H]2CC[C@@H](Oc3cc(N4CCOCC4)cc4nccnc34)CC2)c1F [Compound 359], the Ki was < 100 nM. In the case of Fc1cnc(N[C@H]2CC[C@@H](Oc3cc(N4CCOCC4)cc4nccnc34)CC2)c(F)c1 [Compound 594], the Ki is reported as < 100 nM. With Cc1ncccc1N[C@H]1CC[C@@H](Oc2cc(N3CCOCC3)cc3nccnc23)CC1 [Compound 442] the Ki was < 100 nM. In the case of Clc1nc(N[C@H]2CC[C@@H](Oc3cc(N4CCOCC4)cc4nccnc34)CC2)nc2[nH]ccc12 [Compound 501], the Ki is reported as < 100 nM. In the case of COc1cccc(N[C@H]2CC[C@@H](Oc3cc(N4CCOCC4)cc4nccnc34)CC2)c1 [Compound 408], the Ki is reported as < 100 nM. With O=c1cc(N[C@H]2CC[C@@H](Oc3cc(N4CCOCC4)cc4nccnc34)CC2)cc[nH]1 [Compound 325] the Ki was < 100 nM. Cc1ncnc(N[C@H]2CC[C@@H](Oc3cc(N4CCOCC4)cc4nccnc34)CC2)c1C [Compound 491] was tested, and the Ki was < 100 nM. With c1cnc2c(O[C@H]3CC[C@@H](Nc4ncnc5ccoc45)CC3)cc(N3CCOCC3)cc2n1 [Compound 488] the Ki was < 100 nM. COc1ncc(F)c(N[C@H]2CC[C@@H](Oc3cc(N4CCOCC4)cc4nccnc34)CC2)n1 [Compound 396] was tested, and the Ki was < 100 nM. For FC(F)(F)c1ccc(N[C@H]2CC[C@@H](Oc3cc(N4CCOCC4)cc4nccnc34)CC2)cn1 [Compound 427], the Ki was < 100 nM. With FC(F)(F)c1cccc(N[C@H]2CC[C@@H](Oc3cc(N4CCOCC4)cc4nccnc34)CC2)n1 [Compound 587] the Ki was < 100 nM. CN(C)c1cc(N[C@H]2CC[C@@H](Oc3cc(N4CCOCC4)cc4nccnc34)CC2)ncn1 [Compound 603] was tested, and the Ki was < 100 nM. For Cc1csc(N[C@H]2CC[C@@H](Oc3cc(N4CCOCC4)cc4nccnc34)CC2)n1 [Compound 284], the Ki was < 100 nM. For c1cnc2c(O[C@H]3CC[C@@H](Nc4ncnc5occc45)CC3)cc(N3CCOCC3)cc2n1 [Compound 518], the Ki was < 100 nM. In the case of Cc1cc(N[C@H]2CC[C@@H](Oc3cc(N4CCOCC4)cc4nccnc34)CC2)n2cnnc2n1 [Compound 500], the Ki is reported as < 100 nM. In the case of c1cnc(N[C@H]2C[C@@H](COc3cc(N4CCOCC4)cc4nccnc34)C2)nc1 [Compound 305], the Ki is reported as < 100 nM. In the case of Cn1nc(N[C@H]2CC[C@@H](Oc3cc(N4CCOCC4)cc4nccnc34)CC2)c2ccccc21 [Compound 298], the Ki is reported as < 100 nM. With CC(C)(C)NC(=O)N[C@H]1CC[C@@H](Oc2cc(N3CCOCC3)cc3nccnc23)CC1 [Compound 425] the Ki was < 100 nM. For COc1cc(N[C@H]2CC[C@@H](Oc3cc(N4CCOCC4)cc4nccnc34)CC2)nc(C)n1 [Compound 659], the Ki was < 100 nM. For CNC(=O)c1ccc(N[C@H]2CC[C@@H](Oc3cc(N4CCOCC4)cc4nccnc34)CC2)cn1 [Compound 358], the Ki was < 100 nM. For c1cnc2c(O[C@H]3CC[C@@H](Nc4ncc(CCN5CCCCC5)cn4)CC3)cc(N3CCOCC3)cc2n1 [Compound 433], the Ki was < 100 nM. CNC(=O)c1ccnc(N[C@H]2CC[C@@H](Oc3cc(N4CC5CC(C4)O5)cc4nccnc34)CC2)n1 [Compound 317] was tested, and the Ki was < 100 nM. With CNc1ncnc(N[C@H]2CC[C@@H](Oc3cc(N4CCOCC4)cc4nccnc34)CC2)c1F [Compound 469] the Ki was < 100 nM. Cc1nc2c(c(N[C@H]3CC[C@@H](Oc4cc(N5CCOCC5)cc5nccnc45)CC3)n1)COC2 [Compound 452] was tested, and the Ki was < 100 nM. For c1cc2c(c(N[C@H]3CC[C@@H](Oc4cc(N5CCOCC5)cc5nccnc45)CC3)c1)OCC2 [Compound 338], the Ki was < 100 nM. COc1ccc(N[C@H]2CC[C@@H](Oc3cc(N4CCOCC4)cc4nccnc34)CC2)nc1OC [Compound 583] was tested, and the Ki was < 100 nM. CC(=O)N1CCC(NC(=O)N[C@H]2CC[C@@H](Oc3cc(N4CCOCC4)cc4nccnc34)CC2)CC1 [Compound 364] was tested, and the Ki was < 100 nM. With OC1(c2ccc(N[C@H]3CC[C@@H](Oc4cc(N5CCOCC5)cc5nccnc45)CC3)cn2)COC1 [Compound 468] the Ki was < 100 nM. In the case of c1cnc2c(O[C@H]3CC[C@@H](Nc4cc5ncnn5cn4)CC3)cc(N3CCOCC3)cc2n1 [Compound 510], the Ki is reported as < 100 nM. With CC(C)(C)OC(=O)N1CCC(c2cnc(N[C@H]3CC[C@@H](Oc4cc(N5CCOCC5)cc5nccnc45)CC3)nc2)C1 (some centres unmarked) [Compound 570] the Ki was < 100 nM. c1cnc2c(O[C@H]3CC[C@@H](Nc4ccc(C5CCC5)nn4)CC3)cc(N3CCOCC3)cc2n1 [Compound 601] was tested, and the Ki was < 100 nM. For CNC(=O)c1cc(C)nc(N[C@H]2CC[C@@H](Oc3cc(N4CCOCC4)cc4nccnc34)CC2)n1 [Compound 308], the Ki was < 100 nM. In the case of OCc1cc(N[C@H]2CC[C@@H](Oc3cc(N4CCOCC4)cc4nccnc34)CC2)ncn1 [Compound 424], the Ki is reported as < 100 nM. For Fc1c[nH]c2ncnc(N[C@H]3CC[C@@H](Oc4cc(N5CCOCC5)cc5nccnc45)CC3)c12 [Compound 437], the Ki was < 100 nM. With CN1CCC(c2ccnc(N[C@H]3CC[C@@H](Oc4cc(N5CCOCC5)cc5nccnc45)CC3)n2)CC1 [Compound 549] the Ki was < 100 nM. For c1cnc(N[C@H]2CC[C@@H](Oc3cc(N4CC5CC(C4)O5)cc4nccnc34)CC2)nc1 [Compound 291, N-[4-[7-(6-oxa-3-azabicyclo[3.1.1]heptan-3-yl)quinoxalin-5-yl]oxycyclohexyl]pyrimidin-2-amine], the Ki was < 100 nM. Cc1nccc(N[C@H]2C[C@@H](Oc3cc(N4CCOCC4)cc4nccnc34)C2)n1 [Compound 357] was tested, and the Ki was < 100 nM. COCc1ccnc(N[C@H]2CC[C@@H](Oc3cc(N4CCOCC4)cc4nccnc34)CC2)c1 [Compound 582] was tested, and the Ki was < 100 nM. CNC(=O)c1cccc(N[C@H]2CC[C@@H](Oc3cc(N4CCOCC4)cc4nccnc34)CC2)n1 [Compound 406] was tested, and the Ki was < 100 nM. For O=C(N[C@H]1CC[C@@H](Oc2cc(N3CCOCC3)cc3nccnc23)CC1)N1CCOCC1 [Compound 412], the Ki was < 100 nM. With COc1cncc(N[C@H]2CC[C@@H](Oc3cc(N4CCOCC4)cc4nccnc34)CC2)c1 [Compound 446] the Ki was < 100 nM. In the case of FC(F)(F)c1cncc(N[C@H]2CC[C@@H](Oc3cc(N4CCOCC4)cc4nccnc34)CC2)c1 [Compound 429], the Ki is reported as < 100 nM. With CN1CCC(c2cnc(N(C)[C@H]3CC[C@@H](Oc4cc(N5CCOCC5)cc5nccnc45)CC3)nc2)CC1 [Compound 657] the Ki was < 100 nM. For c1cnc(O[C@H]2CC[C@H](Oc3cc(N4CCOCC4)cc4nccnc34)CC2)nc1 [Compound 34, 4-(8-(((trans)-4-(pyrimidin-2-yloxy)cyclohexyl)oxy)quinoxalin-6-yl)morpholine], the Ki was < 100 nM. For c1nc(N[C@H]2CC[C@@H](Oc3cc(N4CCOCC4)cc4nccnc34)CC2)cc(-c2nnco2)n1 [Compound 566], the Ki was < 100 nM. With Cc1cc2nc(N[C@H]3CC[C@@H](Oc4cc(N5CCOCC5)cc5nccnc45)CC3)cc(=O)n2o1 [Compound 596] the Ki was < 100 nM. With CCN1CCC(c2cnc(N[C@H]3CC[C@@H](Oc4cc(N5CCOCC5)cc5nccnc45)CC3)nc2)CC1 [Compound 523] the Ki was < 100 nM. In the case of c1cnc2c(O[C@H]3CC[C@@H](Nc4ncnc5[nH]ccc45)CC3)cc(N3CCOCC3)cc2n1 [Compound 515], the Ki is reported as < 100 nM. In the case of c1nc2c(c(N[C@H]3CC[C@@H](Oc4cc(N5CCOCC5)cc5nccnc45)CC3)n1)CCN2 [Compound 370], the Ki is reported as < 100 nM. In the case of CN1CCN(CCOc2ccc(N[C@H]3CC[C@@H](Oc4cc(N5CCOCC5)cc5nccnc45)CC3)nc2)CC1 [Compound 655], the Ki is reported as < 100 nM. Cc1ncc(N[C@H]2CC[C@@H](Oc3cc(N4CCOCC4)cc4nccnc34)CC2)cn1 [Compound 450] was tested, and the Ki was < 100 nM. With O=C(NCC1CCCCC1)N[C@H]1CC[C@@H](Oc2cc(N3CCOCC3)cc3nccnc23)CC1 [Compound 410] the Ki was < 100 nM. CCOc1nccc(N[C@H]2CC[C@@H](Oc3cc(N4CCOCC4)cc4nccnc34)CC2)n1 [Compound 279] was tested, and the Ki was < 100 nM.
